Measurements as given in US20170211147A1, “METHOD OF PREDICTING REACTION TO SORAFENIB TREATMENT USING GENE POLYMORPHISM” (National Cancer Center, priority 2014, published 2017).

Experiments:
[1] = test system: liver cancer patients; assay: Progression-free survival with sorafenib treatment by SLC15A2 genotype (Kaplan-Meier, Cox proportional hazard model); type: in vivo, human
Description: Five coding variants were identified in the SLC15A2 gene by NGS analysis, and three non-synonymous SNVs (L350F, P409S and R509K), which may cause a functional alternation in gene product, were selected so as to analyze genotypes for 233 liver cancer patients that had received sorafenib treatment over 6 weeks.
Also, to confirm SNPs to be analyzed, 249 patients treated with sorafenib were genotyped using the MassARRAY system (Sequenom, San Diego, Calif., USA), thereby obtaining three SNP genotypes (C/C, C/T and T/T).
Specifically, the association between generic polymorphisms and risk for progression was assessed by a Cox proportional hazard model with adjustment by stage of hepatocellular carcinoma (HCC). Also, analyses of data obtained were performed using STATA version 10.1 (Stata Corp, College Station, Tex., USA).

[2] = test system: Hep3B cell line; assay: MTT assay, cell viability after sorafenib treatment; type: cell-based, human; conditions: C/C genotype, sorafenib for 48 hours
Description: (§1) First, human hepatocellular carcinoma (HCC)-derived cell lines such as Hep3B, SNU182 and PLC/PRFS cell lines were purchased from Korean Cell Line Bank (KCLB, Seoul, Republic of Korea), and genomic DNA was extracted from the cell lines derived from human HCC using a MagAttract DNA mini M48 kit (Qiagen) according to a user manual of the kit.
(§2) Afterward, to confirm the sorafenib response in each cell line according to the SLC15A2 gene nucleotide polymorphism, each cell line was cultured in RPMI-1640 (Invitrogen, Carlsbad, Calif., USA) with 10%(v/v) fetal bovine serum (FBS) and 100 U/ml penicillin-streptomycin at 37° C. in 5% CO2. Next, for the MTT assay, cells obtained by the above-described culture were plated on 96-well plates at a density of 1×10^4 cells/well and treated with sorafenib for 48 hours in the RPMI-1640 used above.
(§3) Then, the number of viable cells was measured by performing the MTT assay (Promega Fitchburg, Wis., USA) according to a user manual of the MTT assay.

[3] = test system: PLC/PRFS cell line; assay: as above; type: cell-based, human; conditions: C/T genotype
Description: as §1, §2, §3

[4] = test system: SNU182 cell line; assay: as above; type: cell-based, human; conditions: SNU182, T/T genotype
Description: as §1, §2, §3

CNC(=O)c1cc(Oc2ccc(NC(=O)Nc3ccc(Cl)c(C(F)(F)F)c3)cc2)ccn1 [sorafenib]
progression-free survival (accumulative hazard ratio) [1]: 2.46 | response to sorafenib treatment ([1]; subjects with C/T or T/T genotype compared with C/C genotype): stronger response | proliferation [2]: dose-dependently inhibited | response to sorafenib compared with Hep3B cell line (C/C genotype) ([3]; 48 hours): stronger response | proliferation ([3]; sorafenib for 48 hours): dose-dependently inhibited | response to sorafenib compared with Hep3B cell line (C/C genotype) ([4]; 48 hours): stronger response | proliferation ([4]; sorafenib for 48 hours): dose-dependently inhibited
